Source: patent US20250295668A1, “METHODS FOR INDUCING COLANIC ACID BIOSYNTHESIS” (priority 2024, published 2025)
Several values for one entry are separate records, joined by “and”; a condition that tells them apart may be missing. Equal values may be shown once. Entries after “also recorded” stand apart in the source; their conditions may differ.

How the values were obtained:
cps operon = test: Disk diffusion assay for cps induction, SG20781 cpsB::lacZ reporter; format: cell-based, E. coli; details: SG20781, filter paper disks 10 or 100 μg, 24 hours at 37° C.
Experimental: For antibiotic screening targeting cps expression, the SG20781 strain (MC4100 lon+cpsB10::lacZ Mu-immλ) was used. The bacteria were cultured overnight at 37° C. in Luria-Broth (LB) medium and evenly plated on X-gal (40 μg/mL) supplemented LB agar plates, and incubated overnight.
E. coli strain SG20781 was used to assess antibiotic cps induction via disk diffusion as previously described [PMID: 14553918]. In brief, an overnight bacteria culture was spread onto LB agar containing 0.1 mg ml-1 5-bromo-4-chloro-3-indolyl-β-D-galactoside (X-gal). […] The soaked filter papers were placed onto the bacteria-seeding plates and incubated for 24 hours at 37° C.
Certain β-lactam antibiotics trigger the overexpression of the cps operon in E. coli [PMID: 14553918]. To validate this finding, a disk diffusion assay was performed using SG20781, an E. coli strain that harbors a LacZ reporter for the cps operon transcriptional regulation. Using a colorimetric assay, an increased level of […] reacts with X-gal, resulting in an intensified blue coloration as a result of the transcriptional up-regulation of the cps operon.

wildtype E. coli = test: Colanic acid measurement (fucose quantification) in wildtype E. coli culture medium; format: cell-based
Experimental: For colanic acid quantification, E. coli Keio mutants and the parental strain BW25113 were cultured overnight at 37° C. in M9 minimum medium [PMID: 28436966]. Bacteria were then removed by centrifugation and filtered for colanic acid measurement.
The desired bacterial strain was first inoculated and cultured in M9 minimum medium overnight at 37° C. to obtain the seeding culture. The OD 600 was measured, and the seeding bacteria were diluted to OD600=0.02 in M9 minimum medium for another 16 hours. After the incubation, bacterial cultures were collected in 50 mL tubes, spun down at 4,000 g at 4° C. for 30 min, filtered, and 25 mL of supernatant was collected per 50 ml conical tube. Ice-cold 100% ethanol (EtOH) was added to make a final 50% EtOH solution for precipitation, and the mixture was kept at 4° C. overnight. Once precipitation occurred, the liquid was carefully removed after centrifugation at 4,000 g at 4° C. for 50 min. The pellet was washed once with cold 80% EtOH and then air-dried in a hood. The pellet from every 50 mL culture was resuspended in 500 μL distilled H2O. The solution was sonicated for 60 minutes at 37° C., followed by centrifugation at 4000 g at 4° C. for 10 minutes. A 200 μL sample was mixed with 30 μL hydrochloric acid (320331-500 mL, Sigma-Aldrich) and boiled for 2 hours. Subsequently, 60 μL 5M NaOH and 150 μL NaHCO3/NaOH buffer were added to reach a pH of 6-8, calibrated by 1M HCl or NaOH solutions. The fucose quantification assay was then carried out using a K-FUCOSE kit (Megazyme) according to the manufacturer's protocol.
Next, colanic acid in the bacteria culture medium was quantified via monosaccharide-fucose-from acid-hydrolyzed polysaccharide precipitates. […] Calculations were performed to determine the equivalent dosage by weight in a mammalian subject. Briefly, a typical mouse consumes 5-10 ml of water per day and weighs between 30-40 g. Using the 1.8 μg/mL concentration, a lower bound of 0.225 mg/kg (0.0018 mg/mL×5 ml[…]0.04 kg) and a higher bound of 0.6 mg/kg (0.0018 mg/mL×10 ml÷0.03 kg) were identified. […] In wild-type bacteria treated with cephaloridine and Alon E. coli mutants colanic acid production increased during the exponential growth phase and remained elevated in the stationary phase (FIG. 1D).

E. coli = test: Bacterial growth under low-dose cephaloridine; format: cell-based; details: low-dose cephaloridine vs vehicle-treated E. coli
[1] = Age-related metabolic dysfunction in mice, cephaloridine in drinking water; format: in vivo; details: oral 2 μg/mL
Experimental: Methods: Co-housed 12-month-old […] mice were given MG1655 E. coli at 1×10^8 CFU/mL through distilled drinking water (100 mL) for 24 hours to maintain E. coli occupancy in the mouse gut microbiota. Subsequently, mice received 2 μg/mL cephaloridine through drinking water (100 mL) for 60 hours. […] This entire procedure was then repeated. Cephaloridine dosages were calculated as follows. Briefly, a typical mouse used in this study consumed 5-10 ml of water per day and weighed between 30-40 g. Using the 2 μg/mL concentration, a lower bound of 0.25 mg/kg (0.002 mg/mL×5 mL=0.04 kg) and a higher bound of 0.67 mg/kg (0.002 mg/mL×10 mL=0.03 kg) were identified.

PBP1a = PBP1a (Escherichia coli, UniProt P02918); details: E. coli, literature; cited from earlier work
PBP1a, sequence (P02918 whole entry): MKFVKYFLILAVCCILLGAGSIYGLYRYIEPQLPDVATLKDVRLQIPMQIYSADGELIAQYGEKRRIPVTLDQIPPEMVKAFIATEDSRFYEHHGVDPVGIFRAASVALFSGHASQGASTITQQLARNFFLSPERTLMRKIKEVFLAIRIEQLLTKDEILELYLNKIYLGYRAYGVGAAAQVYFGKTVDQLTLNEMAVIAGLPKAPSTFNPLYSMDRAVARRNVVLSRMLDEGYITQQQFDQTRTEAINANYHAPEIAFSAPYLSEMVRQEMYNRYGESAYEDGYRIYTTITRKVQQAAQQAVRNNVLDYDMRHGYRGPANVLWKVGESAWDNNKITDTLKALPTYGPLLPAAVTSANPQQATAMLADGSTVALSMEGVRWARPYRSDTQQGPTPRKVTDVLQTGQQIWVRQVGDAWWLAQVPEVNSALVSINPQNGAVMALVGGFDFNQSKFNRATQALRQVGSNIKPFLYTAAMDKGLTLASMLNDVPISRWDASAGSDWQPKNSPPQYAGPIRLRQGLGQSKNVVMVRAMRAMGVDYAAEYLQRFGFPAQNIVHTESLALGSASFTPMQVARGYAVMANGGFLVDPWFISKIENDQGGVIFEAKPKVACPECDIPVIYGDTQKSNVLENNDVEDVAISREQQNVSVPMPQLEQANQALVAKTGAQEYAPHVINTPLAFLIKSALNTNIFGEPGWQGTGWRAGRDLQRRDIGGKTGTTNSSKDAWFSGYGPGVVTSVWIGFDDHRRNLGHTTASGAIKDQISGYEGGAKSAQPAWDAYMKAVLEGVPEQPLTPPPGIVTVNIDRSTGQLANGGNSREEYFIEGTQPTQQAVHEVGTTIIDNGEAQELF

O=C(Cc1cccs1)N[C@@H]1C(=O)N2C(C(=O)[O-])=C(C[n+]3ccccc3)CS[C@H]12 [cephaloridine]
cps induction (blue coloration) (cps operon): promote various shades of blue coloration | colanic acid production vs untreated wildtype control (wildtype E. coli; cephaloridine 1.8 μg/mL, 37° C.): 6 fold | optimal concentration for inducing colanic acid biosynthesis (wildtype E. coli; range of doses below MIC): 1.8 μg/mL and 4.3 μM | effect on bacterial growth (E. coli): did not hinder bacteria growth; also recorded: does not alter bacterial growth | increase in plasma insulin between 12 and 18 months of age vs controls ([1]; female mice): lower | age-related increase in LDL:HDL ratio ([1]; male mice): suppressed | plasma HDL ([1]; male mice): not affected | plasma LDL between 12 and 18 months of age ([1]; male mice): remain nearly unchanged | binding to PBP1a (PBP1a): primarily binds to PBP1a
